Assay results from EP3345917A1, “ANTIPROTOZOAL COMPOUNDS” (Bacoba AG, priority 2017, dated 2018).
Non-standard residues stand in square brackets, D forms with d. Residues, ends and D or L forms follow the SMILES beside them. *: point of attachment. Hexenoyl(2E,4S-Me) = CC[C@H](C)/C=C/C(=O)*; Leu(3R-OH) = CC(C)[C@@H](O)[C@H](N)C(=O)O; NH((S)CH(Me)CH2NMe2) = C[C@@H](CN(C)C)N*; Pro(4S-Me) = C[C@@H]1CN[C@H](C(=O)O)C1; Gly(octyl) = CCCCCCCC[C@H](N)C(=O)O; Oxazole4CO(2-Me) = Cc1nc(C(=O)*)co1; Benzoyl(4-F) = O=C(c1ccc(F)cc1)*; hCha = N[C@@H](CCC1CCCCC1)C(=O)O; Nva(5-OH) = N[C@@H](CCCO)C(=O)O; Pyrrole2CO = O=C(c1ccc[nH]1)*; X15 = O=C(c1ccc2cccnc2c1)*; X17 = C[C@@H](CN1CCOCC1)N*; X21 = O=C(c1ccc2ocnc2c1)*; Aib = CC(C)(N)C(=O)O; X12 = CCC/C=C/C(=O)*; βAla = NCCC(=O)O

Assays:
[1] = Cytotoxicity assay on L6-cells (Alamar Blue); settings: rat, Cytotox L6, Cytotoxicity against rat myoblast cells (L6)
[2] = tested on: intracellular Leishmania donovani (L.don. InMac); assay: Intracellular Leishmania donovani assay (L.don. InMac); format: cell-based; settings: In vitro inhibition
Description: (§1) Tests were done in triplicate.

[3] = tested on: Trypanosoma brucei rhodesiense (STIB 900 strain); assay: Alamar Blue assay against Trypanosoma brucei rhodesiense grown in axenic medium; format: cell-based; settings: In vitro inhibition, read-out: T.b.rhod.
Outline: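 T. b. rhodesiense STIB 900 cultured in axenic medium and exposed to samples in an Alamar Blue viability assay, run in triplicate. IC50 calculated from the readout; melarsoprol served as reference drug.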

Plasmodium falciparum = assay: 3H-hypoxanthine incorporation assay against Plasmodium falciparum; format: cell-based; settings: In vitro inhibition, read-out: P.falc NF5
Experimental: as §1
IC50 values were calculated by linear interpolation.

[4] = tested on: Axenically grown Leishmania donovani amastigotes (strain MHOM/ET/67/L82); assay: Axenic Leishmania donovani amastigote resazurin assay; format: cell-based; settings: In vitro inhibition, read-out: L.don. ax
Outline: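 Strain MHOM/ET/67/L82 amastigotes grown axenically and tested in triplicate by resazurin assay. Plates developed 2-4 hours, fluorescence read at 536 nm excitation/588 nm emission and expressed as percentage of negative control.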

[5] = tested on: Trypanosoma cruzi trypomastigote forms (Tulahuen strain); assay: Intracellular Trypanosoma cruzi assay in L6-cells, beta-galactosidase/CPRG readout; format: cell-based; settings: In vitro inhibition, read-out: T.cruzi.
Outline: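 L6 rat myoblasts infected with Tulahuen C2C4 LacZ T. cruzi; after incubation, CPRG/Nonidet substrate added and colour developed 2–6 h. Absorbance at 540 nm; IC50 calculated; triplicate tests.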

Structure (SMILES) | IC50 at 70 h [1] [nM] | IC50 [2] [nM] | IC50 [3] [nM] | IC50 (Plasmodium falciparum) [nM] | IC50 [4] [nM] | IC50 [5] [nM]
CCCCCCCC[C@H](NC(=O)[C@@H]1CCCN1C(=O)/C=C/[C@@H](C)CC)C(=O)N[C@H](C(=O)NC(C)(C)C(=O)N[C@@H](CC(C)C)C(=O)N[C@@H](CC(C)C)C(=O)NC(C)(C)C(=O)NC(C)(C)C(=O)NCCC(=O)N[C@@H](C)CN(C)C)[C@H](O)C(C)C [Compound 5488, (2S)-N-[(1S,2R)-1-[(1-{[(1S)-1-{[(1S)-1-{[1-({1-[(2-{[(2S)-1-(dimethylamino)propan-2-yl]carbamoyl}ethyl)carbamoyl]-1-methylethyl}carbamoyl)-1-methylethyl]carbamoyl}-3-methylbutyl]carbamoyl}-3-methylbutyl]carbamoyl}-1-methylethyl)carbamoyl]-2-hydroxy-3-methylbutyl]-2-{[(2S)-1-[(2E,4S)-4-methylhex-2-enoyl]pyrrolidin-2-yl]formamido}decanamide] ({Hexenoyl(2E,4S-Me)}-P[Gly(octyl)][Leu(3R-OH)][Aib]LL[Aib][Aib][βAla]-{NH((S)CH(Me)CH2NMe2)}) | 666 | 20.2 | 2 | 2.6 | 0.6 | 33.6
CCCCCCCC[C@H](NC(=O)[C@@H]1C[C@H](C)CN1C(=O)/C=C/[C@@H](C)CC)C(=O)N[C@H](C(=O)NC(C)(C)C(=O)N[C@@H](CC(C)C)C(=O)N[C@@H](CC(C)C)C(=O)NC(C)(C)C(=O)NC(C)(C)C(=O)NCCC(=O)N[C@@H](C)CN(C)C)[C@H](O)C(C)C [Compound 5492, (2S)-N-[(1S,2R)-1-[(1-{[(1S)-1-{[(1S)-1-{[1-({1-[(2-{[(2S)-1-(dimethylamino)propan-2-yl]carbamoyl}ethyl)carbamoyl]-1-methylethyl}carbamoyl)-1-methylethyl]carbamoyl}-3-methylbutyl]carbamoyl}-3-methylbutyl]carbamoyl}-1-methylethyl)carbamoyl]-2-hydroxy-3-methylbutyl]-2-{[(2S,4S)-4-methyl-1-[(2E,4S)-4-methylhex-2-enoyl]pyrrolidin-2-yl]formamido}decanamide] ({Hexenoyl(2E,4S-Me)}-[Pro(4S-Me)][Gly(octyl)][Leu(3R-OH)][Aib]LL[Aib][Aib][βAla]-{NH((S)CH(Me)CH2NMe2)}) | 147 | 36.6 | 5.5 | 4.7 | 2 | 113
CC[C@H](C)/C=C/C(=O)N1C[C@@H](C)C[C@H]1C(=O)N[C@@H](CCCO)C(=O)N[C@H](C(=O)NC(C)(C)C(=O)N[C@@H](CC(C)C)C(=O)N[C@@H](CC(C)C)C(=O)NC(C)(C)C(=O)NC(C)(C)C(=O)NCCC(=O)N[C@@H](C)CN(C)C)[C@H](O)C(C)C [Compound 5496, (2S,3R)-N-(1-{[(1S)-1-{[(1S)-1-{[1-({1-[(2-{[(2S)-1-(dimethylamino)propan-2-yl]carbamoyl}ethyl)carbamoyl]-1-methylethyl}carbamoyl)-1-methylethyl]carbamoyl}-3-methylbutyl]carbamoyl}-3-methylbutyl]carbamoyl}-1-methylethyl)-3-hydroxy-2-[(2S)-5-hydroxy-2-{[(2S,4S)-4-methyl-1-[(2E,4S)-4-methylhex-2-enoyl]pyrrolidin-2-yl]formamido}pentanamido]-4-methylpentanamide] ({Hexenoyl(2E,4S-Me)}-[Pro(4S-Me)][Nva(5-OH)][Leu(3R-OH)][Aib]LL[Aib][Aib][βAla]-{NH((S)CH(Me)CH2NMe2)}) | 5220 | 2680 | 6.2 | 660 | 467 | 5110
CCC/C=C/C(=O)N1CCC[C@H]1C(=O)N[C@@H](CCCCCCCC)C(=O)N[C@H](C(=O)NC(C)(C)C(=O)N[C@@H](CC(C)C)C(=O)N[C@@H](CC(C)C)C(=O)NC(C)(C)C(=O)NC(C)(C)C(=O)NCCC(=O)N[C@@H](C)CN(C)C)[C@H](O)C(C)C [Compound 5514, (2S)-N-[(1S,2R)-1-[(1-{[(1S)-1-{[(1S)-1-{[1-({1-[(2-{[(2S)-1-(dimethylamino)propan-2-yl]carbamoyl}ethyl)carbamoyl]-1-methylethyl}carbamoyl)-1-methylethyl]carbamoyl}-3-methylbutyl]carbamoyl}-3-methylbutyl]carbamoyl}-1-methylethyl)carbamoyl]-2-hydroxy-3-methylbutyl]-2-{[(2S)-1-[(2E)-hex-2-enoyl]pyrrolidin-2-yl]formamido}decanamide] (X12-P[Gly(octyl)][Leu(3R-OH)][Aib]LL[Aib][Aib][βAla]-{NH((S)CH(Me)CH2NMe2)}) | 316 | 96.8 | 0.2 | 0.8 | 0.4 | 20.1
CCCCCCCC[C@H](NC(=O)[C@@H]1CCCN1C(=O)c1ccc2ocnc2c1)C(=O)N[C@@H](CC(C)C)C(=O)NC(C)(C)C(=O)N[C@@H](CC(C)C)C(=O)N[C@@H](CC(C)C)C(=O)NC(C)(C)C(=O)NC(C)(C)C(=O)NCCC(=O)N[C@@H](C)CN(C)C [Compound 5937] (X21-P[Gly(octyl)]L[Aib]LL[Aib][Aib][βAla]-{NH((S)CH(Me)CH2NMe2)}) |  | 58.5 | 43500 | 27600 | 21.2 | 45.4
CCCCCCCC[C@H](NC(=O)[C@@H]1CCCN1C(=O)c1ccc2cccnc2c1)C(=O)N[C@@H](CC(C)C)C(=O)NC(C)(C)C(=O)N[C@@H](CC(C)C)C(=O)N[C@@H](CC(C)C)C(=O)NC(C)(C)C(=O)NC(C)(C)C(=O)NCCC(=O)N[C@@H](C)CN(C)C [Compound 5938, (2S)-N-[(1S)-1-[(1-{[(1S)-1-{[(1S)-1-{[1-({1-[(2-{[(2S)-1-(dimethylamino)propan-2-yl]carbamoyl}ethyl)carbamoyl]-1-methylethyl}carbamoyl)-1-methylethyl]carbamoyl}-3-methylbutyl]carbamoyl}-3-methylbutyl]carbamoyl}-1-methylethyl)carbamoyl]-3-methylbutyl]-2-{[(2S)-1-(quinoline-7-carbonyl)pyrrolidin-2-yl]formamido}decanamide] (X15-P[Gly(octyl)]L[Aib]LL[Aib][Aib][βAla]-{NH((S)CH(Me)CH2NMe2)}) |  | 37.8 | 0.5 | 13200 | 42400 | 42400
CCCCCCCC[C@H](NC(=O)[C@@H]1CCCN1C(=O)c1ccc[nH]1)C(=O)N[C@@H](CC(C)C)C(=O)NC(C)(C)C(=O)N[C@@H](CC(C)C)C(=O)N[C@@H](CC(C)C)C(=O)NC(C)(C)C(=O)NC(C)(C)C(=O)NCCC(=O)N[C@@H](C)CN(C)C [Compound 5939, (2S)-N-[(1S)-1-[(1-{[(1S)-1-{[(1S)-1-{[1-({1-[(2-{[(2S)-1-(dimethylamino)propan-2-yl]carbamoyl}ethyl)carbamoyl]-1-methylethyl}carbamoyl)-1-methylethyl]carbamoyl}-3-methylbutyl]carbamoyl}-3-methylbutyl]carbamoyl}-1-methylethyl)carbamoyl]-3-methylbutyl]-2-{[(2S)-1-(1H-pyrrole-2-carbonyl)pyrrolidm-2-yl]formamido}decanamide] (Pyrrole2CO-P[Gly(octyl)]L[Aib]LL[Aib][Aib][βAla]-{NH((S)CH(Me)CH2NMe2)}) |  | 209 | 0.1 | 36200 | 36000 | 42500
Cc1nc(C(=O)N2CCC[C@H]2C(=O)N[C@@H](CCC2CCCCC2)C(=O)N[C@@H](CC(C)C)C(=O)NC(C)(C)C(=O)N[C@@H](CC(C)C)C(=O)N[C@@H](CC(C)C)C(=O)NC(C)(C)C(=O)NC(C)(C)C(=O)NCCC(=O)N[C@@H](C)CN2CCOCC2)co1 [Compound 6026] ({Oxazole4CO(2-Me)}-P[hCha]L[Aib]LL[Aib][Aib][βAla]-X17) |  | 50.7 | 41400 | 38 | 44700 | 422
CC(C)C[C@H](NC(=O)[C@H](CCC1CCCCC1)NC(=O)[C@@H]1CCCN1C(=O)c1ccc(F)cc1)C(=O)NC(C)(C)C(=O)N[C@@H](CC(C)C)C(=O)N[C@@H](CC(C)C)C(=O)NC(C)(C)C(=O)NC(C)(C)C(=O)NCCC(=O)N[C@@H](C)CN1CCOCC1 [Compound 6028, (2S)-2-[(2S)-2-{2-[(2S)-2-[(2S)-4-cyclohexyl-2-{[(2S)-1-(4-fluorobenzoyl)pyrrolidin-2-yl]formamido}butanamido]-4-methylpentanamido]-2-methylpropanamido}-4-methylpentanamido]-4-methyl-N-[1-methyl-1-({1-methyl-1-[(2-{[(2S)-1-(morpholin-4-yl)propan-2-yl]carbamoyl}ethyl)carbamoyl]ethyl}carbamoyl)ethyl]pentanamide] ({Benzoyl(4-F)}-P[hCha]L[Aib]LL[Aib][Aib][βAla]-X17) |  | 418 | 41900 | 26.3 | 12500 | 230
